These results are taken from US9394273B2, “Therapeutic prostaglandin receptor agonists” (Allergan, Inc., priority 2014, dated 2016).

One assay has as its target EP3 (Homo sapiens (Human), UniProt P43115). The assay is described as follows: Other receptors FLIPR: EP3. In kind it is cell-based. Particulars: NA undefined in patent. The text has this:
(§1) U.S. patent application publication No. 20070129552, published on Jun. 7, 2007, incorporated by reference herein, describes the methods used to obtain the in vitro data in Table 1 below.

Assay [1] concerns the target T1, EP2 (Homo sapiens (Human), UniProt P43116). The assay is described as follows: EP2 cAMP functional assay. In kind it is cell-based.
From the text: as §1

Assay [2] deals with T1, EP2. The assay is described as follows: EP2 binding assay (Ki).
From the text: as §1

Assay [3] deals with T2, prostaglandin EP4 receptor (Homo sapiens (Human), UniProt P35408). The assay is described as follows: EP4 cAMP functional assay. The format is cell-based.
From the text: as §1

The target in assay [4] is T2, prostaglandin EP4 receptor. Put plainly: EP4 binding assay (Ki). Particulars: read-out: EP4 Ki EC50.
From the text: as §1

For another assay, the target named is TP (Homo sapiens (Human), UniProt P21731). The assay is described as follows: Other receptors FLIPR: TP. In kind it is cell-based. The following applies: NA undefined in patent.
From the text: as §1

EP3, sequence (P43115 whole entry): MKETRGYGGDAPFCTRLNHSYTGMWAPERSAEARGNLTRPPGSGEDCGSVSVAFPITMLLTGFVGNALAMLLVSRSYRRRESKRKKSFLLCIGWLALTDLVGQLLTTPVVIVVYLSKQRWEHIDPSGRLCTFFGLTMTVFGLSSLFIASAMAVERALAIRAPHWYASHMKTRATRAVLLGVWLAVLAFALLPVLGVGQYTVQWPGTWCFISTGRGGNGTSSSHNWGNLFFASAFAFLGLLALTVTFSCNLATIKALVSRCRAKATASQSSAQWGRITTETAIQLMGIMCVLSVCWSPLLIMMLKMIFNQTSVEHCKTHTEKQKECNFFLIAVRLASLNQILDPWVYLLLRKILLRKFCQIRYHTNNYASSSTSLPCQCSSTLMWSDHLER
T2 sequence (P35408 whole entry): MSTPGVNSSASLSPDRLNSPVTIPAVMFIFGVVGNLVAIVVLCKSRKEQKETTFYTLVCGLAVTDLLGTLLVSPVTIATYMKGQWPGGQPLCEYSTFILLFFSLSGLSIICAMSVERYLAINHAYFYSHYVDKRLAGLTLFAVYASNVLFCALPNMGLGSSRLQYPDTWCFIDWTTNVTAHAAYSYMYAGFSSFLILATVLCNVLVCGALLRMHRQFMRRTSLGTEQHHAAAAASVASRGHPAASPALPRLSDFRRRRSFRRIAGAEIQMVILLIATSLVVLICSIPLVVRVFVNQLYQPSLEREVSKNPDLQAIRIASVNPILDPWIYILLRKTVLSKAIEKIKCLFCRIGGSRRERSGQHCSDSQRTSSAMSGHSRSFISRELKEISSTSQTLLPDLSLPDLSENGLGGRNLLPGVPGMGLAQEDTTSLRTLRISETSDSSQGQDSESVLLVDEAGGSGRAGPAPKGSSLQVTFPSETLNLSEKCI
T1 sequence (P43116 whole entry): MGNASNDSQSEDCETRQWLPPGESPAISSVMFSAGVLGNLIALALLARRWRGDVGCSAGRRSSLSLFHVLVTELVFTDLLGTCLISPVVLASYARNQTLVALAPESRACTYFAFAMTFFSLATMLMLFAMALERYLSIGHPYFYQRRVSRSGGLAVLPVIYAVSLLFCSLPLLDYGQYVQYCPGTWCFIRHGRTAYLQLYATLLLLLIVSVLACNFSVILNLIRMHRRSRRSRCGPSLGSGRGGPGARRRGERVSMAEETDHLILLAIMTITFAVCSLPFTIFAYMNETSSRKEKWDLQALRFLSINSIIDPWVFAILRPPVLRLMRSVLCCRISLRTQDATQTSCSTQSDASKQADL
TP, sequence (P21731 whole entry): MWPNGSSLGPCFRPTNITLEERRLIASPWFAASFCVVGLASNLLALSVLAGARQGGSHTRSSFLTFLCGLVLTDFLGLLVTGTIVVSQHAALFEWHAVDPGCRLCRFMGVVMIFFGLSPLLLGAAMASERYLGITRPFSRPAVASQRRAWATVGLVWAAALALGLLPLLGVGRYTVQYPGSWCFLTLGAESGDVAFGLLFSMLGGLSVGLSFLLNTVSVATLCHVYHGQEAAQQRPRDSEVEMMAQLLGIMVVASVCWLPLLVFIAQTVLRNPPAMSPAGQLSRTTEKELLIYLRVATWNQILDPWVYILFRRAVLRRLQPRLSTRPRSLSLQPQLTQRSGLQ

On to `O=C(O)c1ccc(CC[C@H]2C(=O)CC[C@@H]2/C=C/C(O)Cc2ccccc2F)cc1` (single isomer, unassigned) [Entry 22, (E)-4-(2-(2-(4-(2-fluorophenyl)-3-hydroxybut-1-en-1-yl)-5-oxocyclopentyl)ethyl)benzoic acid], for which the values for the EC50 (at EP3; on EP2 [1]; in assay [3]) were 4670 nM, 8 nM and 0.3 nM, respectively. Moreover, the inhibition constant Ki – broadly, a measure of affinity in units of concentration, obtained from inhibition or displacement – came out at 1030 nM on EP2 [2] and 4 nM in assay [4].
Regarding `O=C(O)c1ccc(CC[C@H]2C(=O)CC[C@@H]2/C=C/C(O)Cc2sc3ccccc3c2Cl)cc1` (single isomer, unassigned) [Entry 3, (E)-4-(2-(2-(4-(3-chlorobenzo[b]thiophen-2-yl)-3-hydroxybut-1-en-1-yl)-5-oxocyclopentyl)ethyl)benzoic acid], the “EP2 cAMP EC50 (nM)” value on EP2 [1] is greater than 10K. Further, the “EP2 Ki (nM)” value on EP2 [2] is listed as greater than 10K. For the same compound, a half-maximal effect in assay [3] (EC50) was put at 1280 nM. The Ki in assay [4] was 2310 nM.
Take `O=C(O)c1ccc(CC[C@H]2C(=O)CC[C@@H]2/C=C/C(O)Cc2cccc(F)c2F)cc1` (single isomer, unassigned) [Entry 25, (E)-4-(2-(2-(4-(2,3-difluorophenyl)-3-hydroxybut-1-en-1-yl)-5-oxocyclopentyl)ethyl)benzoic acid]: the concentration giving a half-maximal response (EC50) – broadly, the concentration that produces a half-maximal response – at EP2 [1] stood at 164 nM; in assay [3] it was 30 nM. The Ki at EP2 [2] is 3150 nM; in assay [4] it was 585 nM.
As to `O=C(O)c1ccc(CC[C@H]2C(=O)CC[C@@H]2/C=C/C(O)Cc2cccc(Cl)c2)cc1` (stereo partly drawn) [Entry 7, (E)-4-(2-(2-(4-(3-chlorophenyl)-3-hydroxybut-1-en-1-yl)-5-oxocyclopentyl)ethyl)benzoic acid], the EC50 at TP was determined as 4830 nM; at EP2 [1], 123 nM; in assay [3], 2 nM. For the same compound, the inhibitory constant (Ki) is 2760 nM on EP2 [2] and 2 nM in assay [4].
Take `O=C(O)c1ccc(CC[C@H]2C(=O)CC[C@@H]2/C=C/C(O)Cc2ccc(F)c(F)c2)cc1` (single isomer, unassigned) [Entry 23, (E)-4-(2-(2-(4-(3,4-difluorophenyl)-3-hydroxybut-1-en-1-yl)-5-oxocyclopentyl)ethyl)benzoic acid]: the Ki at EP2 [2] was 9320 nM; in assay [4], 293 nM. It took 21 nM to reach a half-maximal effect in assay [3] (EC50).
Turning to `COc1ccc2ccc(CC(O)/C=C/[C@H]3CCC(=O)[C@@H]3CCc3ccc(C(=O)O)cc3)cc2c1` (stereo partly drawn) [Entry 18, (E)-4-(2-(2-(3-hydroxy-4-(7-methoxynaphthalen-2-yl)but-1-en-1-yl)-5-oxocyclopentyl)ethyl)benzoic acid], the “EP2 Ki (nM)” value on EP2 [2] is reported as greater than 10K. In addition, the 50% effective concentration (EC50) in assay [3] amounted to 2 nM. Also, in assay [4], the Ki came out at 9 nM.
`O=C(O)c1ccc(CC[C@H]2C(=O)CC[C@@H]2/C=C/C(O)Cc2sc3ccccc3c2Cl)cc1` (single isomer, unassigned) [Entry 4, (E)-4-(2-(2-(4-(3-chlorobenzo[b]thiophen-2-yl)-3-hydroxybut-1-en-1-yl)-5-oxocyclopentyl)ethyl)benzoic acid]: on EP2 [1], the “EP2 cAMP EC50 (nM)” value is reported as greater than 10K. Also, the “EP2 Ki (nM)” value on EP2 [2] is greater than 10K. In assay [3], the response was half-maximal at 186 nM (EC50). For the same compound, the inhibition constant Ki in assay [4] amounted to 603 nM.
Consider `O=C(O)c1ccc(CC[C@H]2C(=O)CC[C@@H]2/C=C/C(O)Cc2ccc3ccsc3c2)cc1` (stereo partly drawn) [Entry 15, (E)-4-(2-(2-(4-(benzo[b]thiophen-6-yl)-3-hydroxybut-1-en-1-yl)-5-oxocyclopentyl)ethyl)benzoic acid], for which, at TP, the OTHER RECEPTORS FLIPR EC50 (nM): TP is less than 10000 nM. Moreover, the EC50 at EP3 was determined as 67 nM; in assay [3] it was 0.5 nM. At EP2 [2], the “EP2 Ki (nM)” value is on record as greater than 10K. Moreover, in assay [4], the Ki came out at 41 nM.
As for `COc1ccc2cc(CC(O)/C=C/[C@H]3CCC(=O)[C@@H]3CCc3ccc(C(=O)O)cc3)ccc2c1` (stereo partly drawn) [Entry 16, (E)-4-(2-(2-(3-hydroxy-4-(6-methoxynaphthalen-2-yl)but-1-en-1-yl)-5-oxocyclopentyl)ethyl)benzoic acid], the “EP2 Ki (nM)” value on EP2 [2] is greater than 10K. Further, the concentration giving a half-maximal response (EC50) in assay [3] turned out to be 728 nM. Further, in assay [4], the Ki was 2660 nM.
`O=C(O)c1ccc(CC[C@H]2C(=O)CC[C@@H]2/C=C/C(O)Cc2cc(F)ccc2F)cc1` (single isomer, unassigned) [Entry 28, (E)-4-(2-(2-(4-(2,5-difluorophenyl)-3-hydroxybut-1-en-1-yl)-5-oxocyclopentyl)ethyl)benzoic acid]: the EC50 turned out to be 5990 nM on EP3, 10 nM on EP2 [1] and 0.2 nM in assay [3]. Moreover, the inhibition constant (Ki) is 1300 nM at EP2 [2] and 5 nM in assay [4].
For `O=C(O)c1ccc(CC[C@H]2C(=O)CC[C@@H]2/C=C/C(O)Cc2ccc(F)cc2)cc1` (single isomer, unassigned) [Entry 19, (E)-4-(2-(2-(4-(4-fluorophenyl)-3-hydroxybut-1-en-1-yl)-5-oxocyclopentyl)ethyl)benzoic acid], the figures for the Ki (on EP2 [2]; in assay [4]) were 9290 nM and 902 nM, respectively. This compound had a concentration giving a half-maximal response (EC50) in assay [3] of 38 nM.
In the case of `O=C(O)c1ccc(CC[C@H]2C(=O)CC[C@@H]2/C=C/C(O)Cc2cc(F)ccc2F)cc1` (single isomer, unassigned) [Entry 27, (E)-4-(2-(2-(4-(2,5-difluorophenyl)-3-hydroxybut-1-en-1-yl)-5-oxocyclopentyl)ethyl)benzoic acid], the half-maximal effective concentration (EC50) at EP2 [1] came to 125 nM; in assay [3], 18 nM. Besides, the figures for the Ki (on EP2 [2]; in assay [4]) were 3630 nM and 457 nM, respectively.
The matching figures for `O=C(O)c1ccc(CC[C@H]2C(=O)CC[C@@H]2/C=C/C(O)Cc2cccc(F)c2)cc1` (single isomer, unassigned) [Entry 5, (E)-4-(2-(2-(4-(3-fluorophenyl)-3-hydroxybut-1-en-1-yl)-5-oxocyclopentyl)ethyl)benzoic acid]: 78 nM, 1 nM, 3420 nM and 40 nM.
In the case of `O=C(O)c1ccc(CC[C@H]2C(=O)CC[C@@H]2/C=C/C(O)Cc2cccc(Br)c2)cc1` (single isomer, unassigned) [Entry 10, (E)-4-(2-(2-(4-(3-bromophenyl)-3-hydroxybut-1-en-1-yl)-5-oxocyclopentyl)ethyl)benzoic acid], the values for the concentration for a half-maximal effect (EC50) at TP, at EP3 and at EP2 [1] were 108 nM, 180 nM and 26 nM, respectively. At EP2 [2], this compound gave a Ki of 947 nM.
For the compound `O=C(O)c1ccc(CC[C@H]2C(=O)CC[C@@H]2/C=C/C(O)Cc2ccc3ccccc3c2)cc1` (single isomer, unassigned) [Entry 2], the “EP2 Ki (nM)” value at EP2 [2] is on record as greater than 10K. For the same compound, the midpoint of the response in assay [3], the EC50, lay at 21 nM. Besides, the inhibitory constant (Ki) in assay [4] was found to be 10 nM.
`O=C(O)c1ccc(CC[C@H]2C(=O)CC[C@@H]2/C=C/C(O)Cc2cccc(C(F)(F)F)c2)cc1` (single isomer, unassigned) [Entry 12, (E)-4-(2-(2-(3-hydroxy-4-(3-(trifluoromethyl)phenyl)but-1-en-1-yl)-5-oxocyclopentyl)ethyl)benzoic acid]: the concentration for a half-maximal effect (EC50) on TP is 218 nM; at EP2 [1], 35 nM; in assay [3], 0.2 nM. For the same compound, the inhibition constant (Ki) is 1310 nM on EP2 [2] and 1 nM in assay [4].
Take `O=C(O)c1ccc(CC[C@H]2C(=O)CC[C@@H]2/C=C/C(O)Cc2cccc(F)c2F)cc1` (single isomer, unassigned) [Entry 26, (E)-4-(2-(2-(4-(2,3-difluorophenyl)-3-hydroxybut-1-en-1-yl)-5-oxocyclopentyl)ethyl)benzoic acid]: the concentration giving a half-maximal response (EC50) at EP3 stood at 9950 nM; on EP2 [1] it was 8 nM; in assay [3], 0.2 nM. Also, the inhibition constant (Ki) at EP2 [2] was found to be 1240 nM; in assay [4], 2 nM.
Consider `O=C(O)c1ccc(CC[C@H]2C(=O)CC[C@@H]2/C=C/C(O)Cc2ccc3ccccc3c2)cc1` (single isomer, unassigned) [Entry 1], for which the “EP2 Ki (nM)” value on EP2 [2] was greater than 10K. Also, in assay [3], it took 1 nM to reach a half-maximal effect (EC50). The Ki in assay [4] was 0.8 nM.
Compound `O=C(O)c1ccc(CC[C@H]2C(=O)CC[C@@H]2/C=C/C(O)Cc2cccc(Br)c2)cc1` (single isomer, unassigned) [Entry 9, (E)-4-(2-(2-(4-(3-bromophenyl)-3-hydroxybut-1-en-1-yl)-5-oxocyclopentyl)ethyl)benzoic acid] registered a concentration giving a half-maximal response (EC50) on EP2 [1] of 278 nM. Also, at EP2 [2], the affinity, expressed as Ki, was 1450 nM.
Consider `O=C(O)c1ccc(CC[C@H]2C(=O)CC[C@@H]2/C=C/C(O)Cc2cccc(C(F)(F)F)c2)cc1` (single isomer, unassigned) [Entry 11, (E)-4-(2-(2-(3-hydroxy-4-(3-(trifluoromethyl)phenyl)but-1-en-1-yl)-5-oxocyclopentyl)ethyl)benzoic acid], for which the EC50 worked out at 1010 nM on EP2 [1] and 16 nM in assay [3]. Moreover, the values for the Ki (on EP2 [2]; in assay [4]) were 3160 nM and 90 nM, respectively.
Regarding `COc1cc2ccccc2cc1CC(O)/C=C/[C@H]1CCC(=O)[C@@H]1CCc1ccc(C(=O)O)cc1` (stereo partly drawn) [Entry 17, (E)-4-(2-(2-(3-hydroxy-4-(3-methoxynaphthalen-2-yl)but-1-en-1-yl)-5-oxocyclopentyl)ethyl)benzoic acid], at EP2 [2], the “EP2 Ki (nM)” value was greater than 10K. Moreover, the inhibitory constant (Ki) in assay [4] was found to be 4620 nM.
Turning to `O=C(O)c1ccc(CC[C@H]2C(=O)CC[C@@H]2/C=C/C(O)Cc2ccccc2F)cc1` (single isomer, unassigned) [Entry 21, (E)-4-(2-(2-(4-(2-fluorophenyl)-3-hydroxybut-1-en-1-yl)-5-oxocyclopentyl)ethyl)benzoic acid], the values for the concentration giving a half-maximal response (EC50) (at EP2 [1]; in assay [3]) were 76 nM and 4 nM, respectively. Further, the inhibition constant Ki was determined as 2220 nM on EP2 [2] and 64 nM in assay [4].
